The results in this text go back to patent publication US20080032939A1, “Iridoid-saccharide compound and method of using same” (Health Research, Inc., priority 2004, published 2008).

The structures appear in SMILES notation.

The subject of data set [1] is colo-26 tumor cells. Description: In vitro cytotoxicity in Colo-26 tumor cells. The data set is classed as cell-based. The procedure: Vehicle: 1% Tween 80 in 5% dextrose solution.
(§1) All the plant products isolated from the bark of Plumeria bicolor were insoluble in water and were dissolved in 1% Tween 80 in 5% dextrose solution. Among these analogs, plumeiride 3 produced good cytotoxicity producing a lethal dose 60% (LD60) with 200 μM, and an LD20 with 400 μM C-17 in colo-26 tumor cells. […] Plumieride 3 was then evaluated for in vivo efficacy in mice (6 mice/group) bearing colo-26 tumors at variable concentrations. […] This response was doubled to 24 days when the dose was increased to 100 mg/kg/mouse (FIG. 3).

Data set [2] deals with colo-26 tumors. Put plainly: In vivo efficacy in mice bearing colo-26 tumors. The procedure: as §1
(§2) On day 9, the drug administration was stopped and tumors were allowed to grow until they reached the size of approximately 350 mm^3 in volume. The drug injection was resumed (150 mg/kg/mouse) daily for another 7 days.

A short description of data set [3]: Preliminary screening of toxicity in treated mice. The data set is classed as in vivo. The note with it: mice treated with compound 3. The procedure:
as §2

Setting [4] is: colo-26 tumor cells, vehicle 1% Tween 80 in 5% dextrose.

Consider `COC(=O)C1=CO[C@@H](O[C@@H]2O[C@H](CO)[C@@H](O)[C@H](O)[C@H]2O)[C@H]2[C@@H]1C=C[C@@]21C=C([C@H](C)O)C(=O)O1` [compound 3, plumieride], for which the LD20 in data set [1] (setting [4]) is 400 µM. Also, the “lethal dose 60% (LD60)” value in data set [1] (setting [4]) turned out to be 200 µM. In data set [1] (compared with triterpenoids 1, 2), the “relative effectiveness among the components isolated from the bark” value is listed as “most effective”. The “tumor volume after injections were re-initiated” value in data set [2] (150 mg/kg/mouse daily for another 7 days, resumed at tumor size approximately 350 mm^3) is recorded as “regressed to almost half the size”. Besides, in data set [2] (150 mg/kg/mouse, as long as the drug was injected (until day 9)), the tumor inhibition entry is listed as “complete tumor inhibition”. Further, the “time with no increase in tumor volume” value in data set [2] (dose 100 mg/kg/mouse, mice bearing colo-26 tumors) is recorded as 24 days; in data set [2] (injected daily with 50 mg/kg/mouse, mice bearing colo-26 tumors), 12 days. Further, the “tumor growth delay versus untreated control mice” value in data set [2] (mice bearing colo-26 tumors, variable concentrations) was “significant tumor growth delay”. Also, the “visible toxicity, body weight, daily habits” value in data set [3] is recorded as “no visible toxicity as well as a change in body weight or daily habits”.
